From US20100216827A1 (Metabolex, Inc., priority 2008, published 2010)
Read-outs that look alike come from different tables or passages of the source.

Key:
[1] = test system: C57BL/6J mice; assay: Oral glucose tolerance test (OGTT); format: in vivo; details: 6 h fasted male C57BL/6J mice, 3 g/kg oral glucose, vs vehicle
Method: (§1) 8-10 week old male C57BL/6J mice (Harlan) were maintained on regular chow diet from Harlan (2018 Teklad Global). For the oral glucose tolerance test (OGTT), on the day of the experiment mice were fasted for 6 hours, then randomized into groups (n=10-15) to receive the tested GPR120 agonist at doses ranging from 30 mg/kg to 100 mg/kg or the vehicle (1% CMC, 2% TWEEN 80). For the intra-peritoneal glucose tolerance test (IPGTT), the mice were fasted for overnight, then randomized into groups (n=10-15) to receive the tested GPR120 agonist at doses ranging from 30 mg/kg to 100 mg/kg or the vehicle (1% CMC, 2% TWEEN 80). Compounds were delivered orally via gavage at 10 mL/kg. Blood glucose levels were measured by glucometer (Ascensia Elite XL, Bayer) at time −30 minutes before administration of compound. Blood glucose was measured again after 30 minutes (at time 0), and then the mice were dosed orally with 3 g/kg glucose at 10 mL/kg or were dosed intraperitoneally with 2 g/kg glucose at 10 mL/kg. Blood glucose measurements were taken 20, 40, 60, 90 and 120 minutes after glucose administration, by glucometer (Ascensia Elite XL, Bayer).
Glucose levels were plotted against time, and the incremental area under the curve (AUC) of the glucose excursion was determined from time 0 using Graphpad Prism 5.01. Outliers were excluded using Tukey's box plot outlier test, and statistical significance of differences in AUC of compound treatment compared to vehicle was determined by non-parametric Kruskal-Wallis test with Dunn's post test.
The compounds were tested at 100 mg/kg and the levels of blood glucose were determined in the presence and absence of the tested compounds. The percentage of glucose or intra-peritoneal reduction is reported as a percent reduction in AUC (area under the curve). The tested compound was selected as examples from the exemplified compounds.

[2] = target: T1, human GPR120 (Homo sapiens, UniProt Q5NUL3); assay: Intracellular Ca2+ (FLIPR Calcium 4, Flexstation) assay in human GPR120 stable HEK293 cell line coexpressing Gqi5; format: cell-based; details: for % Activity at 5 μM: 5 μM compound compared to the maximal activity of GW9508 at 6.7 μM (100%); for EC50: human GPR120 stably expressing cells, 8 concentrations 0.00001 to 20 μM
T1 construct: host or cells: HEK293 cells coexpressing Gqi5
T1 sequence (Q5NUL3 1-361): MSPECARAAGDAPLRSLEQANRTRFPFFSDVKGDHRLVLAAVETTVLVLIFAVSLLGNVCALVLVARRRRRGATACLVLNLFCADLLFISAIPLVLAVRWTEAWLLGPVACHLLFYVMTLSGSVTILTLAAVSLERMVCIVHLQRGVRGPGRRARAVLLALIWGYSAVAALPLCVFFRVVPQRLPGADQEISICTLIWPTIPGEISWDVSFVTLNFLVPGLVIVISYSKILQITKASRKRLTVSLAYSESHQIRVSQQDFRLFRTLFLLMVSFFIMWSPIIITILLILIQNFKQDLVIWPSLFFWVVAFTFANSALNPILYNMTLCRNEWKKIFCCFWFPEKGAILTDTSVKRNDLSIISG
Procedure, shortened: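 Calcium 4 dye-loaded HEK293 cells expressing N-terminally Flag-tagged human GPR120 with Gqi5 (HBSS/20 mM HEPES, pH 7.4; 50 min, 37 °C). Fluorescence (485/525 nm) read for 90 s after addition of compound at 8 concentrations, 0.00001–20 μM; EC50 from Max−Min change. % activity at 5 μM versus maximal GW9508 response (6.7 μM).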

[3] = test system: C57BL/6J mice; assay: Intra-peritoneal glucose tolerance test (IPGTT); format: in vivo; details: 100 mg/kg oral gavage, overnight fasted male C57BL/6J mice, 2 g/kg glucose i.p., vs vehicle
Method: as §1, with “Blood glucose measurements were taken 20, 40, 60, 90 and 120 minutes after glucose administration, by glucometer (Ascensia Elite XL, Bayer).” left out
Glucose levels were plotted against time, and the incremental area under the curve (AUC) of the glucose excursion was determined from time 0 using Graphpad Prism 5.01. Outliers were excluded using Tukey's box plot outlier test, and statistical significance of differences in AUC of compound treatment compared to vehicle was determined by non-parametric Kruskal-Wallis test with Dunn's post test. […]

[4] = read-out: EC50 between >1 μM and ≦10 μM

SMILES | % reduction in OGTT AUC ([1]; 30 mg/kg oral gavage) | % reduction in OGTT AUC ([1]; 100 mg/kg oral gavage) | % Activity at 5 μM [2] | EC50 ([2]; read-out: EC50 ≦ 1 μM) | % reduction in IPGTT AUC [3] | EC50 [2, 4]
Cc1cc(COc2c(F)cc(CC(C)C(=O)O)cc2F)n(-c2ccc(Cl)cc2)n1 (stereo not shown) [Example 36, 3-(4-((1-(4-chlorophenyl)-3-methyl-1H-pyrazol-5-yl)methoxy)-3,5-difluorophenyl)-2-methylpropanoic acid] | 15% | 45.2% | 96% | ≤ 1000 nM | 24% | –
Cc1cc(COc2c(F)cc(C[C@@H](C)C(=O)O)cc2F)n(-c2ccc(Cl)cc2)n1 [Example 43, (R)-3-(4-((1-(4-chlorophenyl)-3-methyl-1H-pyrazol-5-yl)methoxy)-3,5-difluorophenyl)-2-methylpropanoic acid] | 20% | 40% | – | – | – | –
Cc1cc(COc2c(F)cc(C[C@H](C)C(=O)O)cc2F)n(-c2ccc(Cl)cc2)n1 [Example 44, (S)-3-(4-((1-(4-chlorophenyl)-3-methyl-1H-pyrazol-5-yl)methoxy)-3,5-difluorophenyl)-2-methylpropanoic acid] | 33% | 39% | – | – | – | –
CCc1ccc(-n2nc(C)cc2COc2ccc(CCCC(=O)O)cc2)cc1 [Example 129, 4-(4-((1-(4-ethylphenyl)-3-methyl-1H-pyrazol-5-yl)methoxy)phenyl)butanoic acid] | – | – | 99% | ≤ 1000 nM | – | –
CCc1ccc(-n2nc(C)cc2COc2c(F)cc(CCCC(=O)O)cc2F)cc1 [Example 130, 4-(4-((1-(4-ethylphenyl)-3-methyl-1H-pyrazol-5-yl)methoxy)-3,5-difluorophenyl)butanoic acid] | – | – | 103% | ≤ 1000 nM | – | –
Cc1cc(COc2ccc(CCC(C)C(=O)O)cc2)n(-c2ccc(Cl)cc2)n1 (stereo not shown) [Example 131, 4-(4-((1-(4-chlorophenyl)-3-methyl-1H-pyrazol-5-yl)methoxy)phenyl)-2-methylbutanoic acid] | – | – | 68% | – | – | 1000 to 10000 nM
CCc1ccc(-n2nc(C)cc2COc2ccc(CCC(C)C(=O)O)cc2)cc1 (stereo not shown) [Example 132, 4-(4-((1-(4-ethylphenyl)-3-methyl-1H-pyrazol-5-yl)methoxy)phenyl)-2-methylbutanoic acid] | – | – | 85% | – | – | 1000 to 10000 nM
COc1cc(CCC(=O)O)ccc1OCc1cc(C)nn1-c1ccc(Cl)cc1 [Example 133, 3-(4-((1-(4-chlorophenyl)-3-methyl-1H-pyrazol-5-yl)methoxy)-3-methoxyphenyl)propanoic acid] | – | – | 107% | – | – | 1000 to 10000 nM
